EP0039037A1, “Pyrimidylthio-ureas, medicines containing them and their use” (Beiersdorf Aktiengesellschaft, priority 1980, dated 1981)

What was measured:
hyperlipidämische Mäuse = test: Lipid-lowering effect in hyperlipidaemic mice (method analogous to Turner, Screening Methods in Pharmacology, and Garattini et al.); assay type: in vivo
Procedure: Die lipidsenkende Wirkung von N. (4,6-Dimethoxy-5-pyrimidyl)-thioharnstoff wurde an hyperliprdämischen Mausen analog einer Untersuchungsmethode, wie in "Screening Methods in Pharmacology", Robert A. Turner, 1965, Academic Press, New York and London, und Garattini et al, Arzneimittelforschung 9, 206 (1959), angegeben, untersucht. Die Verbindung wurde in einer Menge von 10 mg/kg peroral verabreicht. Es wurde eine Senkung des Cholesterinspiegels von 25 % und eine Senkung der Triglyceride von 27% erzielt.
(§1) Es wurde die lipid- und blutdrucksenkende Wirkung von N-(2,4-DimethoxY-5-pyrimidyl)-thioharnstoff untersucht. Als Yersuchsziere. wurden hyperlipidämische Mäuse und spontan hypertensive Ratten verwendet.
Bei den Mäusen wurde eine Verabreichungsdosis von 100 mg/ kg peroral verwendet, wobei eine Senkung des Cholesterinspiegels von 38 % und eine Senkung der Triglyceride von 49 % erreicht wurde.

[1] = tested on: spontan hypertensive Ratten; test: Blood-pressure-lowering effect in spontaneously hypertensive rats; assay type: in vivo; settings: 30 mg/kg peroral
Procedure: as §1
Bei den Ratten wurde eine Dosis von 30 mg/kg peroral verabreicht, wobei eine Blutdrucksenkung von 30 % erzielt wurde.
Es wurde die blutdrucksenkende Wirkung von N-(4,6-Dimethoxy-2-methyl-5-pyrimidyl)-thioharnstoff bei spontan hypertensiven Ratten untersucht. Den Ratten wurde die Verbindung in einer Dosis von 30 mg/kg peroral verabreicht. Damit wurde eine Blutdrucksenkung von 30 % erzielt.

SMILES	Senkung der Triglyceride (hyperlipidämische Mäuse; 10 mg/kg peroral) [%]	Senkung des Cholesterinspiegels (hyperlipidämische Mäuse; 10 mg/kg peroral) [%]	Blutdrucksenkung [1] [%]	Senkung der Triglyceride (hyperlipidämische Mäuse; 100 mg/kg peroral) [%]	Senkung des Cholesterinspiegels (hyperlipidämische Mäuse; 100 mg/kg peroral) [%]
COc1ncnc(OC)c1NC(N)=S [N-(4,6-Dimethoxy-5-pyrimidyl)-thioharnstoff]	27	25			
COc1nc(C)nc(OC)c1NC(N)=S [N-(4,6-Dimethoxy-2-methyl-5-pyrimidyl)-thioharnstoff]			30		
COc1ncc(NC(N)=S)c(OC)n1 [N-(2,4-Dimethoxy-5-pyrimidyl)-thioharnstoff]			30	49	38
